Experimental data taken from publication PMC7667638 (Journal of Medicinal Chemistry, 2020).
Read-outs that look alike come from different tables or passages of the source.

What was measured:
[1] = target: T1, hNaV1.4 (Homo sapiens, UniProt P35499); test: cell-based; format: cell-based
[2] = target: T1, hNaV1.4; test: cell-based; conditions: for IC50: SEM
[3] = target: T2, hNaV1.7 (Homo sapiens, UniProt Q15858); test: cell-based; format: cell-based
[4] = target: T2, hNaV1.7; test: cell-based; conditions: SEM
[5] = target: T1, hNaV1.4; conditions: cited from earlier work
[6] = target: T2, hNaV1.7; conditions: SEM; cited from earlier work
[7] = test system: rNaV1.4; conditions: read-out: IC50 (nM ± SEM), rat NaV1.4; cited from earlier work

T1 sequence (P35499 whole entry, looked up): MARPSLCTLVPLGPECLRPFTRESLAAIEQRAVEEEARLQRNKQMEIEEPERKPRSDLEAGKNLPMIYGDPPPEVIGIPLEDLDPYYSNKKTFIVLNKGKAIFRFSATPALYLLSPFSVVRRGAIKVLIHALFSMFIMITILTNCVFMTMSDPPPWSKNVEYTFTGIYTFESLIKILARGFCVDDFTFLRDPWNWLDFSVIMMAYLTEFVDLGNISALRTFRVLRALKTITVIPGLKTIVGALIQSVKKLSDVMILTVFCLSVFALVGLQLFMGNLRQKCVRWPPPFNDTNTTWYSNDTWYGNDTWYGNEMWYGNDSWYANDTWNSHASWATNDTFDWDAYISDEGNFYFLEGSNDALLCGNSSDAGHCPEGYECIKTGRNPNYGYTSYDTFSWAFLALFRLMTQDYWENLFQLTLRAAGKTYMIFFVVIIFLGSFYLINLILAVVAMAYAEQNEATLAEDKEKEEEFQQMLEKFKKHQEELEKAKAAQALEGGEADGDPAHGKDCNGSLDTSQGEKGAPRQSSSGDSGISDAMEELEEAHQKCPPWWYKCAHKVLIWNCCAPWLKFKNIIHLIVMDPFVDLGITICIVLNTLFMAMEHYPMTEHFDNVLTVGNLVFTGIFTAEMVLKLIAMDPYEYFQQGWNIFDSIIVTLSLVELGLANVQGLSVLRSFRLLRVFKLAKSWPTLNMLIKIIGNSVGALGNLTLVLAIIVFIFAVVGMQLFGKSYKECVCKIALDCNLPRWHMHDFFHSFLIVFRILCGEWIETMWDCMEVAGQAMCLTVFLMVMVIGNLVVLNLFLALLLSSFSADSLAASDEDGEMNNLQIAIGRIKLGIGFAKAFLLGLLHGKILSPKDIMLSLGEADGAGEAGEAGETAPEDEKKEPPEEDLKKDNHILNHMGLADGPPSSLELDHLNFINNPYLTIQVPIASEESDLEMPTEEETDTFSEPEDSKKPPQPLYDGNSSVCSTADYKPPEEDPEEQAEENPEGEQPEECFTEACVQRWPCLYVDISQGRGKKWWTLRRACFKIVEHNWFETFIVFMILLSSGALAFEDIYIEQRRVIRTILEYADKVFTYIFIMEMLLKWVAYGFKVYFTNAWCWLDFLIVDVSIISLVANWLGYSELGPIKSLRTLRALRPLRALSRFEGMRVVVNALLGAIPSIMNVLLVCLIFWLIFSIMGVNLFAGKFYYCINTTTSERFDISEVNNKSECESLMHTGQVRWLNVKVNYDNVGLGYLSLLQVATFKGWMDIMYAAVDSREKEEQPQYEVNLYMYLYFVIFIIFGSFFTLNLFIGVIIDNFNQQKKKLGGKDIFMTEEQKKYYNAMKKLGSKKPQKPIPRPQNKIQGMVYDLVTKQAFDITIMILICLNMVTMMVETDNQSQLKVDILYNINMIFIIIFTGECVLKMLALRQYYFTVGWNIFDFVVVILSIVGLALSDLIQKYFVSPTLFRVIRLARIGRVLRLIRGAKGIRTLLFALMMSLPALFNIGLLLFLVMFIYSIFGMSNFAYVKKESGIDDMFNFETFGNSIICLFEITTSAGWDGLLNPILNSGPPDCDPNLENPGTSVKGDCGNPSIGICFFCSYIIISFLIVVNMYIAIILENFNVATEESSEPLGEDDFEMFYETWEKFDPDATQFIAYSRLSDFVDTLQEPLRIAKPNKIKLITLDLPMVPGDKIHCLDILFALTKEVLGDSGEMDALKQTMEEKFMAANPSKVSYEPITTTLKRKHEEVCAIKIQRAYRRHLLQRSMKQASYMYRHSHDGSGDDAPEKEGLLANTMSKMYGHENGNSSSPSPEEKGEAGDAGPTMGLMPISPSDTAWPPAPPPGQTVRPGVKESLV
T2 sequence (Q15858 whole entry, looked up): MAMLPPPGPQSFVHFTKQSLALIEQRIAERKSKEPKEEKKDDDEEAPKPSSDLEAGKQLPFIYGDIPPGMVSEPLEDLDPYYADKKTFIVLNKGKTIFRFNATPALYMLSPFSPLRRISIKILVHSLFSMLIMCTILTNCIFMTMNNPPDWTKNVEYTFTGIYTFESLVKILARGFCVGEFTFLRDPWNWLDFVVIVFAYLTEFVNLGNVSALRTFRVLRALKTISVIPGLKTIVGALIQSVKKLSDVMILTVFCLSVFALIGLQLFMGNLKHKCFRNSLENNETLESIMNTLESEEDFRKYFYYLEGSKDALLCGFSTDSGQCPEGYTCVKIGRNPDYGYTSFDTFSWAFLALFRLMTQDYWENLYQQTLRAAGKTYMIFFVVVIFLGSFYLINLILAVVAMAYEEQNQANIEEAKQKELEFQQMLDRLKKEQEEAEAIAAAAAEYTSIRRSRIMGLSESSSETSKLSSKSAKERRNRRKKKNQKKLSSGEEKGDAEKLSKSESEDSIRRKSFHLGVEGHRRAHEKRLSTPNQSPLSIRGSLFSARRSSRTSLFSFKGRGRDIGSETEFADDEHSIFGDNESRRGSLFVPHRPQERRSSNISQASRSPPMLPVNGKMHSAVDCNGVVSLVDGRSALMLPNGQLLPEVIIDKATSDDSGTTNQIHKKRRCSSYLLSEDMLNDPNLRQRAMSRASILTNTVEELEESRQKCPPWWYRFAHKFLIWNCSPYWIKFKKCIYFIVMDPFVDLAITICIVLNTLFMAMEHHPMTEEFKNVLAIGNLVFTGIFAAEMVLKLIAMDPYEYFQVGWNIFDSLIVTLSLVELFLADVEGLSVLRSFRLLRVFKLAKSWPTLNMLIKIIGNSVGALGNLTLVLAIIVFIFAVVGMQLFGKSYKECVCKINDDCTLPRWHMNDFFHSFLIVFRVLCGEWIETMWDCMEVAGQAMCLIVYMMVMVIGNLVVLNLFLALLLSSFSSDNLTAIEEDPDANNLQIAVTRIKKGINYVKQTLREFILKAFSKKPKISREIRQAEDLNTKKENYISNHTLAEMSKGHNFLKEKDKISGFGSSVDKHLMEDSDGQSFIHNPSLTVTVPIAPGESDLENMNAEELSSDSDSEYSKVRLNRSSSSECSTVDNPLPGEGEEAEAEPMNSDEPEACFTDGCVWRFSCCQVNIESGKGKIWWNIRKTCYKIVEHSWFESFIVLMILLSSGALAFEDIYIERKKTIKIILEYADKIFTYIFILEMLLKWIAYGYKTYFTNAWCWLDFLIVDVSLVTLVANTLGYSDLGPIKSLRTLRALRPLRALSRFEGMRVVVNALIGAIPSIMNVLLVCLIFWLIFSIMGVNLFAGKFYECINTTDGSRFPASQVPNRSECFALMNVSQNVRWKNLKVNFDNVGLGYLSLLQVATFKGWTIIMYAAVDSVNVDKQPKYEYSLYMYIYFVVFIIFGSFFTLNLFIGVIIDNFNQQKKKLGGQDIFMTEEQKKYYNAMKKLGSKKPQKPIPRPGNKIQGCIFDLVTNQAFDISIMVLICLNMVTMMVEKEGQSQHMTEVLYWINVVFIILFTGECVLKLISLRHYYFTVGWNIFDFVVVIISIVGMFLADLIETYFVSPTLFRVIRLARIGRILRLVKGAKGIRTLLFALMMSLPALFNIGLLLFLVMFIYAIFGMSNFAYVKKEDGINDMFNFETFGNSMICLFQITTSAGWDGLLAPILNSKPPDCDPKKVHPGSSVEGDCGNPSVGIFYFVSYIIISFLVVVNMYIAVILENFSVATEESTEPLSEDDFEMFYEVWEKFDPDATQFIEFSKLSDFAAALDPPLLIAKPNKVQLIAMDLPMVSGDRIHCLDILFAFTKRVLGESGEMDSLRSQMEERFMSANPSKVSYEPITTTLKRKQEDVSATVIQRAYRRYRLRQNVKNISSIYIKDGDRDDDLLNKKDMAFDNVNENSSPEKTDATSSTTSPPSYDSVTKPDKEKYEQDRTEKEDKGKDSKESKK

In the case of [N-]=[N+]=NCCCC[C@H](N)C(=O)N[C@H]1CSSC[C@@H]2NC(=O)[C@H](CCCNC(=N)N)NC(=O)[C@H](CO)NC(=O)[C@H](Cc3c[nH]cn3)NC(=O)[C@H](CC(=O)O)NC(=O)[C@H](CCCNC(=N)N)NC(=O)[C@@H]3CSSC[C@H](NC1=O)C(=O)N[C@@H](CC(N)=O)C(=O)N[C@@H](CSSC[C@@H](C(N)=O)NC2=O)C(=O)N[C@@H](CO)C(=O)N[C@@H](CO)C(=O)N[C@@H](CCCCN)C(=O)N[C@@H](Cc1c[nH]c2ccccc12)C(=O)N3 [AzK-KIIIA], the “recovery of sodium current at end of washout, hNaV1.4” value [1] is reported as about 40%, the koff ([1]; read-out: koff, hNaV1.4, SEM) is reported as 0.00118 s⁻¹ and the kon ([1]; read-out: kon, hNaV1.4) is reported as 39700 M⁻¹ s⁻¹. For the same compound, the “IC50 relative to 1, hNaV1.4” value [2] was 3.6× ↑, the IC50 [2] was 32 ± 10 nM and the “recovery of sodium current at end of washout, hNaV1.7” value [3] was 12.6 ± 1.2%. The koff ([3]; read-out: koff, hNaV1.7, SEM) was 0.000392 s⁻¹, the kon ([3]; read-out: kon, hNaV1.7) was 16200 M⁻¹ s⁻¹ and the IC50 [4] was 96 ± 41 nM.
For N=C(N)NCCC[C@@H]1NC(=O)[C@H](CO)NC(=O)[C@H](Cc2c[nH]cn2)NC(=O)[C@H](CC(=O)O)NC(=O)[C@H](CCCNC(=N)N)NC(=O)[C@@H]2CSSC[C@@H]3NC(=O)[C@@H](NC(=O)[C@@H](N)CCCCn4cc(C[C@H](N)C(=O)NCCOCCOCCOCCOCCC(=O)NCCOCCOCCOCCOCCC(=O)NCCOCCOCCOCCOCCC(=O)NCCOCCOCCOCCOCCC(=O)NN)nn4)CSSC[C@H](NC1=O)C(=O)N[C@H](C(N)=O)CSSC[C@H](NC(=O)[C@H](CC(N)=O)NC3=O)C(=O)N[C@@H](CO)C(=O)N[C@@H](CO)C(=O)N[C@@H](CCCCN)C(=O)N[C@@H](Cc1c[nH]c3ccccc13)C(=O)N2 [[K-KIIIA]-[PEG80]], the “IC50 relative to 1, hNaV1.4” value [2] was 16.0× ↑ and the IC50 [2] was 144 ± 46 nM.
For N=C(N)NCCC[C@@H]1NC(=O)[C@H](CO)NC(=O)[C@H](Cc2c[nH]cn2)NC(=O)[C@H](CC(=O)O)NC(=O)[C@H](CCCNC(=N)N)NC(=O)[C@@H]2CSSC[C@@H]3NC(=O)[C@@H](N)CSSC[C@@H](C(N)=O)NC(=O)[C@H](CSSC[C@H](NC(=O)[C@H](CC(N)=O)NC3=O)C(=O)N[C@@H](CO)C(=O)N[C@@H](CO)C(=O)N[C@@H](CCCCN)C(=O)N[C@@H](Cc3c[nH]c4ccccc34)C(=O)N2)NC1=O [µ-KIIIA-ox-p2], the IC50 [4] was 154 ± 15 nM.
N=C(N)NCCC[C@@H]1NC(=O)[C@H](CO)NC(=O)[C@H](Cc2c[nH]cn2)NC(=O)[C@H](CC(=O)O)NC(=O)[C@H](CCCNC(=N)N)NC(=O)[C@@H]2CSSC[C@@H]3NC(=O)[C@@H](N)CSSC[C@H](NC1=O)C(=O)N[C@H](C(N)=O)CSSC[C@H](NC(=O)[C@H](CC(N)=O)NC3=O)C(=O)N[C@@H](CO)C(=O)N[C@@H](CO)C(=O)N[C@@H](CCCCN)C(=O)N[C@@H](Cc1c[nH]c3ccccc13)C(=O)N2 [μ-KIIIA, μ-conotoxin KIIIA] gave an IC50 [4] of 132 ± 37 nM.
In the case of “E1G, E4G, Y33W huwentoxin-IV [m3-HwTx-IV]”, the IC50 ([5]; SEM) is given as 369 ± 196 nM, the IC50 ([5]; read-out: IC50 (nM ± SEM), hNaV1.4) is given as 370 nM and the IC50 [6] is given as 0.4 ± 0.1 nM.
For μ-theraphotoxin-Hs2a [HwTx-IV], the IC50 [7] is listed as 400 nM.
